The RepoRT retention time repository (doi:10.1007/s11306-011-0298-z)

Experiment: RP, Waters ACQUITY UPLC HSS T3, 100 × 2.1 mm, 1.8 µm, 30 °C, 0.3 mL/min, estimated dead time 0.73 min; A: water + 0.1% formic acid, pH 3; B: methanol + 0.1% formic acid, pH 3; gradient (min/%B) 0/0 6/0 56/100 60/100
Details: stereoisomer not certain

Row | Structure (SMILES) | LC retention time [min]
1 | CC1=CCCC(C)(C)C12CCC(C)O2 (racemic) | 48.1
2 | O=C(C=Cc1ccc(O)c(O)c1)OC1CC(OC(=O)C=Cc2ccc(O)c(O)c2)(C(=O)O)CC(O)C1O (stereo not drawn) [1,3 - dicaffeoylquinic acid] | 24.9
3 | NCCCCN [1,4-diaminobutane] | 1.1
4 | Nc1nc2c(ncn2C2CC(O)C(COP(=O)(O)O)O2)c(=O)[nH]1 (stereo not drawn) [2'-deoxyguanosine-5'-phosphate] | 7.99
5 | O=C(O)C(=O)C(O)C(O)C(O)CO [2-keto-D-gluconic acid] | 1.4
6 | C=Cc1ccc(O)c(OC)c1 [2-methoxy-4-vinylphenol] | 31.3
7 | CC(C)C(=O)OCCOc1ccccc1 [2-phenoxyethyl isobutyrate] | 40.2
8 | O=C1CCCN1 [2-pyrrolidinone] | 5.9
9 | O=Cc1ccc(O)c(O)c1 [3,4 dihydroxybenzaldehyde] | 16.2
10 | O=C(O)c1cc(O)cc(O)c1 [3,5-dihydroxybenzoic acid] | 14.3
11 | CCOc1cc(C=O)ccc1O [3-ethoxy-4-hydroxybenzaldehyde] | 27.2
12 | CC(O)(CC(=O)O)CC(=O)O [3-hydroxy-3-methyl glutaric acid] | 7.04
13 | O=Cc1cccc(O)c1 [3-hydroxybenzaldehyd] | 20.3
14 | Cc1c[nH]c2ccccc12 [3-methyl indole] | 34.1
15 | CC(=O)CCc1ccc(O)cc1 [4-(4-hydroxyphenyl)butan-2-one] | 24.6
16 | Nc1ccc(C(=O)O)cc1 [4-aminobenzoic acid] | 12.3
17 | CN(C)c1ccc(C=CC=O)cc1 [4-dimethylaminocinnamaldehyde] | 34.5
18 | O=c1cc(O)c2ccccc2o1 [4-hydroxycoumarin] | 24.2
19 | Oc1ccc(C=Cc2ccccc2)cc1 [4-stilbenol] | 41.8
20 | O=Cc1ccc(CO)o1 [5-hydroxymethyl-2-furaldehyde] | 11.9

Row | Structure (SMILES) | LC retention time [min]
21 | Cc1ccc(C=O)o1 [5-methyl furfural] | 20.3
22 | CCCCCC(O)C=CC=CCC=CCC=CCCCC(=O)O [15(S)hydroxy-(5Z,8Z,11Z,13E)-eicosatetraenoic acid] | 50.4
23 | COc1cc(C(C)=O)ccc1O [Acetovanillone] | 23.9
24 | O=C(O)CC(Nc1ncnc2c1ncn2C1OC(COP(=O)(O)O)C(O)C1O)C(=O)O (stereo not drawn) [Adenylosuccinic acid] | 12.7
25 | NC(=O)CCCCC1CCSS1 (stereo not drawn) [Alpha lipoamide] | 29
26 | CCCCCCCCCCCCCCCCCC(=O)OCCCC [Butyl stearate] | 59.5
27 | OCC1OC(OC2C(Oc3cc4c(O)cc(O)cc4[o+]c3-c3ccc(O)c(O)c3)OC(CO)C(O)C2O)C(O)C(O)C1O (stereo not drawn) [Cyanidin 3-sophoroside] | 21.4
28 | OCc1ccccc1OC1OC(CO)C(O)C(O)C1O (stereo not drawn) [D(-)-Salicin] | 16.1
29 | C[C@@H](O)[C@H](O)[C@H](O)[C@@H](O)C=O [D-(+)-fucose] | 1.8
30 | OCC1OC(O)C(O)C1O [D-(-)-Ribose] | 1.4
31 | CCCCCCCCCCCC=CC=CC=CC=CC=CC(=O)O [Docosapentaenoic acid] | 54
32 | Cc1cc2nc3c(=O)[nH]c(=O)nc-3n(CC(O)C(O)C(O)COP(=O)(O)OP(=O)(O)OCC3OC(n4cnc5c(N)ncnc54)C(O)C3O)c2cc1C (stereo not drawn) [FAD] | 20.7
33 | CC(CCC(=O)O)C1CCC2C3C(O)C(O)C4CC(O)CCC4(C)C3CCC12C (stereo not drawn) [Hyocholic acid] | 45.6
34 | NC(=O)C[C@H](N)C(=O)O [L-asparagine] | 1.27
35 | N[C@@H](CC(=O)O)C(=O)O [L-aspartic acid] | 1.28
36 | NC(=O)NCCC[C@H](N)C(=O)O [L-citrulline] | 1.4
37 | N[C@@H](CCC(=O)O)C(=O)O [L-glutamic acid] | 1.31
38 | N[C@@H](Cc1cnc[nH]1)C(=O)O [L-histidine] | 1.2
39 | N[C@@H](CCO)C(=O)O [L-homoserine] | 1.29
40 | CC[C@H](C)[C@H](N)C(=O)O [L-isoleucine] | 4.62

The next lines start with the values.

Row | LC retention time [min] | Structure (SMILES)
41 | 33.5 | Oc1ccc(C=Cc2cc(O)cc3c2C(c2cc(O)cc(O)c2)C(c2ccc(O)cc2)O3)cc1 (stereo not drawn)
42 | 16.4 | OCC1OC(Oc2ccccc2)C(O)C(O)C1O (stereo not drawn)
43 | 4.08 | Nc1ncnc2c1ncn2C1OC(COP(=O)(O)O)C(O)C1O (stereo not drawn)
44 | 1.41 | OCC(O)C(O)CO (racemic)
45 | 57.7 | CC(C)CCCC(C)C1CCC2C3CC4OC45CC(O)CCC5(C)C3CCC12C (racemic)
46 | 1 | NCCCN [1,3 diaminopropane]
47 | 26.6 | O=C(O)Cc1c[nH]c2ccccc12 [1H-indol-3-ylacetic acid]
48 | 16.9 | O=C(O)c1c(O)cccc1O [2,6-dihydroxybenzoic acid]
49 | 6.5 | CCC(C)CN (stereo not drawn) [2-methylbutylamine]
50 | 17.5 | O=C(O)c1ccc(O)cc1 [4-hydroxybenzoic acid]
51 | 27.8 | Cc1cc(=O)oc2cc(O)ccc12 [4-methylumbelliferone]
52 | 42.9 | COc1ccc2oc(-c3ccccc3)cc(=O)c2c1 [6-methoxyflavone]
53 | 38.9 | CC(C)=C1CCC(C)CC1=O [(R)-(+)-pulegone]
54 | 1.4 | O=C(CO)C(O)C(O)C(O)CO (stereo not drawn) [D(-)fructose]
55 | 1.5 | OCC1OC(OC2OC(CO)C(O)C(O)C2O)C(O)C(O)C1O [D-(+)-trehalose]
56 | 1.33 | O=C[C@H](O)[C@@H](O)[C@@H](O)[C@H](O)C(=O)O [D-(+)galacturonic acid]
57 | 14.3 | CC(C)(CO)C(O)C(=O)NCCC(=O)O [D-pantothenic acid]
58 | 32.6 | Oc1ccc(C=Cc2cc(O)cc3c2C(c2cc(O)cc4c2C(c2cc(O)cc(O)c2)C(c2ccc(O)cc2)O4)C(c2ccc(O)cc2)O3)cc1 (stereo not drawn) [E-cis-miyabenol C]
59 | 21.9 | Cc1cc2nc3c(=O)[nH]c(=O)nc-3n(CC(O)C(O)C(O)COP(=O)(O)O)c2cc1C (stereo not drawn) [FMN]
60 | 25.1 | O=Cc1c[nH]c2ccccc12 [Indole-3-aldehyde]
61 | 24.6 | O=C(O)C(O)Cc1c[nH]c2ccccc12 (stereo not drawn) [Indolelactic acid]
62 | 1.51 | O=C(O)[C@H](O)[C@@H](O)C(=O)O [L-(+)-tartaric acid]
63 | 1.3 | NC(=O)CC[C@H](N)C(=O)O [L-Glutamine]
64 | 59.9 | CCCCCCCCC=CCCCCCCCC(=O)OC(COC(=O)CCCCCCCCCCCCCCC)COP(=O)([O-])OCC[N+](C)(C)C [L-a-Phosphatidylcholine]
65 | 1.21 | N[C@@H](CCSC[C@H](N)C(=O)O)C(=O)O [L-cystathionine]
66 | 1.23 | N[C@@H](CS)C(=O)O [L-cysteine]
67 | 3.4 | NC(CCC(=O)NC(CS)C(=O)NCC(=O)O)C(=O)O [L-glutathione]
68 | 11 | Nc1ccccc1C(=O)CC(N)C(=O)O [L-kynurenine]
